These compounds were tested on Colo205 human colon carcinoma cell line (assay: In vitro tumor cell proliferation assay (MTS, CellTiter 96 Aqueous One Solution)). Details: COLO 205, Colo205 cells, 72 hours compound exposure, MTS absorbance at 490 nm, read-out: IC50 (concentration of test compound required to inhibit proliferation of 50% of the cells).
Format: cell-based
Method in brief: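 Proliferation measured as MTS tetrazolium reduction (490 nm) after 72 h compound exposure at 37 °C. Cells plated at 2000 per well in serum-supplemented RPMI-1640; duplicate 5-point dilutions topping out at 10-20 μM. Percent inhibition versus untreated and cell-free wells, IC50 derived by linear regression.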

Row | SMILES | IC50 [nM]
1 | N#Cc1c(N2CCN(c3ccccn3)CC2)c(F)cc2c(=O)c(C(=O)O)cn(-c3ccc(CN4CCCC4)cc3)c12 [Example 169, 8-cyano-6-fluoro-4-oxo-7-(4-pyridin-2-ylpiperazin-1-yl)-1-[4-(pyrrolidin-1-ylmethyl)phenyl]-1,4-dihydroquinoline-3-carboxylic acid] | 500 to 2000
2 | O=C(O)c1cn(-c2ccc(CNCC3CC3)cc2)c2c(Cl)c(N3CCN(c4ccccn4)CC3)c(F)cc2c1=O [Example 170, 8-chloro-1-(4-{[(cyclopropylmethyl)amino]methyl}phenyl)6-fluoro-4-oxo-7-(4-pyridin-2-ylpiperazin-1-yl)-1,4-dihydroquinoline-3-carboxylic acid] | < 500
3 | O=C(O)c1cn(-c2ccc(CNC3CCCC3Cl)cc2)c2c(Cl)c(N3CCN(c4ccccn4)CC3)c(F)cc2c1=O (stereo not shown) [Example 173, 8-chloro-1-{4-[(2-chloro-cyclopentylamino)-methyl]-phenyl}-6-fluoro-4-oxo-7-(4-pyridin-2-yl-piperazine-1-yl)-1,4-dihydro-quinoline-3-carboxylic acid] | 500 to 2000
4 | CC(C)N(Cc1ccc(-n2cc(C(=O)O)c(=O)c3cc(F)c(N4CCN(c5ccccn5)CC4)c(Cl)c32)cc1)C1CCCCC1 [Example 174, 8-chloro-1-{4-[(2-cyclohexyl-isopropyl-amino)-methyl]-phenyl}-6-fluoro-4-oxo-7-(4-pyridin-2-yl-piperazine-1-yl)-1,4-dihydro-quinoline-3-carboxylic acid] | < 500
5 | Cc1cccc(N2CCN(c3c(F)cc4c(=O)c(C(=O)O)cn(-c5ccc(CN6CCCC6)cc5F)c4c3Cl)CC2)n1 [Example 175, 8-chloro-6-fluoro-1-(2-fluoro-4-pyrrolidin-1-ylmethyl-phenyl)-7-[4-(6-methylpyridine-2-yl)-piperazine-1-yl]-4-oxo-1,4-dihydroquinoline-3-carboxylic acid] | < 500

Other lines, results leading:

Row | IC50 [nM] | SMILES
6 | < 500 | O=C(O)c1cn(-c2ccc(CNC3CCCCC3)cc2)c2c(Cl)c(N3CCN(c4ccccn4)CC3)c(F)cc2c1=O [Example 171, 8-chloro-1-(4-cyclohexylaminomethyl-phenyl)-6-fluoro-4-oxo-7-(4-pyridin-2-yl-piperazin-1-yl)-1,4-dihydroquinoline-3-carboxylic acid]
7 | < 500 | COc1cc(CN2CCCC2)ccc1-n1cc(C(=O)O)c(=O)c2cc(F)c(N3CCN(c4ccc(F)cc4)CC3)c(Cl)c21 [Example 176, 8-chloro-6-fluoro-7-[4-(4-fluorophenyl)-piperazine-1-yl]-1-(2-methoxy-4-pyrrolidin-1-ylmethyl-phenyl)-4-oxo-1,4-dihydroquinoline-3-carboxylic acid]
8 | < 500 | COc1cc(CN2CCCCC2)ccc1-n1cc(C(=O)O)c(=O)c2cc(F)c(N3CCN(c4ccc(F)cc4)CC3)c(Cl)c21 [Example 177, 8-chloro-6-fluoro-7-[4-(4-fluorophenyl)-piperazine-1-yl]-1-(2-methoxy-4-piperidine-1-ylmethyl-phenyl)-4-oxo-1,4-dihydroquinoline-3-carboxylic acid]
9 | < 500 | COc1cc(CNC2CCC2)ccc1-n1cc(C(=O)O)c(=O)c2cc(F)c(N3CCN(c4ccc(F)cc4)CC3)c(Cl)c21 [Example 178, 8-chloro-1-(4-cyclobutylaminomethyl-2-methoxyphenyl)-6-fluoro-7-[4-(4-fluorophenyl)-piperazine-1-yl]-4-oxo-1,4-dihydroquinoline-3-carboxylic acid]
10 | 500 to 2000 | COc1cc(CNC2CCCC2)ccc1-n1cc(C(=O)O)c(=O)c2cc(F)c(N3CCN(c4ccc(F)cc4)CC3)c(Cl)c21 [Example 179, 8-chloro-1-(4-cyclopentylaminomethyl-2-methoxyphenyl)-6-fluoro-7-[4-(4-fluorophenyl)-piperazine-1-yl]-4-oxo-1,4-dihydroquinoline-3-carboxylic acid]

— patent US20070213339A1 (Bayer Pharmaceuticals Corporation, priority 2004, published 2007)
